The values that follow come from patent US20230099822A1, “MR1 LIGANDS AND PHARMACEUTICAL COMPOSITIONS FOR IMMUNOMODULATION” (UNIVERSITÄT BASEL, priority 2020, published 2023).

The subject of the experiment is MR1T cell clones AVA34, AC1A4 and MAIT clone MRC25. Briefly: MR1 tetramer staining of T cell clones. The format is binding, human. How it is done: Correct protein conformation was confirmed by performing a plate-bound activation of the MR1T cell clone DGB129. Refolded MR1-compound protein was serially diluted in PBS (1.5-100 μg/mL) and added to a high-protein-binding plate (Nunc, Cat #439454) for 2 h at 37° C. The wells were washed thoroughly with PBS before addition of 5×10^4 cells that were left overnight at 37° C. IL-13 ELISA was then used as an activation readout. The functional monomer was then biotinylated using BirA-500 biotinylation kit (Avidity, Cat #Bulk BirA) overnight at 4° C. Excess biotin was removed using S75 10/30 (GE Healthcare, 29148721) gel filtration before tetramerization with phycoerythrin (PE) streptavidin (Prozyme, Cat #P JRS25) in a 4:1 molar ratio. As control MR1 tetramers, human MR1-5-OP-RU and human MR1-6-FP labelled with APC, PE or AlexaFluor488 were used (The MR1 tetramer technology was developed jointly by Dr. James McCluskey, Dr. Jamie Rossjohn, and Dr. David Fairlie, and the material was produced by the NIH Tetramer Core Facility as permitted to be distributed by the University of Melbourne). […]
Samples were acquired on LSR Fortessa flow cytometer with the FACS Diva software (Becton Dickinson). […] When PBMCs were analyzed, CD14^+ and CD19^+ cells were excluded by staining with fluorescent antibodies detected in the same channel as the Live/Dead staining. All data was analyzed using FlowJo (LLC).

As for “MR1-6-FP tetramers: control MR1 tetramer, human MR1-6-FP, produced by the NIH Tetramer Core Facility”, the “tetramer staining of MR1T clone AVA34” value is “not”.
